Columns and labels:
[1] = tested on: souris mâles de souche swiss; assay: Pentetrazol antagonism (protection against tonic convulsions); format: in vivo; details: Mus musculus, po, 60 min before 125 mg/kg s.c. pentetrazol, male Swiss mice, observed for two hours, read-out: Pentétrazol v. o. DE50
Method: Ce test est réalisé sur un groupe de dix souris mâles de souche Swiss. Dans un délai de quinze minutes après l'injection sous-cutanée de 125 mg/kg de pentétrazol, les souris ont des convulsions toniques dont l'issue est fatale. Pour l'essai, on administre par voie orale les composés soixante minutes avant l'injection de pentétrazol. Les animaux sont observes pendant deux heures après administration du pentétrazol.
Les résultats sont exprimés par la dose efficace DE50 selon Goodmann et Coll. (J. Pharmacol. 108, 1953).

[2] = tested on: souris mâles de souche swiss; assay: Rotating rod test (Rota-Rod); format: in vivo; details: Mus musculus, po, male Swiss mice, 10 per dose, effective if the mouse falls off the rod in less than two minutes, read-out: Rota-Rod v. o. DE50
Excerpt: On réalise cet essai sur des souris mâles de souche swiss. On place la souris sur une tige de bois d'un diamètre de 3 crn, tournant à raison de cinq tours par minute. On choisit les souris qui peuvent rester sur la tige pendant au moins trois minutes au cours d'essais successifs et on les rassemble par groupe de dix pour l'essai de chaque dose.
Si la souris tombe de la tige en moins de deux minutes, on considère le composé essayé comme efficace.
Les résultats sont exprimés en DE50 selon: N. W. Dunham et T. S. Miva (J. Amer. Pharm. Asso., 1957, 46,208).

[3] = Oral toxicity, lethal dose 50 (Miller and Tainter method); details: in vivo, lethal dose 50 calculated by the Miller and Tainter method, read-out: Toxicité v. o. DE50
Excerpt: Les composés les plus actifs de la présente invention ont été soumis à des contrôles de toxicité.
La dose létale 50 et les activités pharmacologiques sont rapportées dans le Tableau (I).
La dose létale a été recherchée par voie orale et calculée selon la méthode de Miller et Tainter (Proc. Soc. Exper. Biol. Med., 1944,57,261).

Compound | ED50 [1] | ED50 [2] | LD50 [3]
CN(C(=O)CNC1CCCCC1)c1ccc(C#N)cc1C(=O)c1ccccc1 [Exemple 13, Chlorhydrate de N-méthyl N'-cyclohexyl (benzoyl-2' cyano-4') glycylanilide] | 0.9 mg/kg | 7 mg/kg | > 1000 mg/kg
CN(C(=O)CNC1CCCCC1)c1ccc(Br)cc1C(=O)c1ccccc1 [Br] |  | 22 mg/kg | > 1000 mg/kg
CN(C(=O)CNC1CCCCC1)c1ccc(C(F)(F)F)cc1C(=O)c1ccccc1 [Exemple 12, N-méthyl N'-cyclohexyl (benzoyf-2' trifluorométhyl-4') glycylanilide] | 1 mg/kg | 8 mg/kg | > 1000 mg/kg

Reference: EP0015214B1, “Derivatives of substituted 2-benzoyl glycinanilides, their preparation and their use in anxiolytic medicaments” (PIERRE FABRE S.A., priority 1979, dated 1980)
